Where two headings read alike, the source gives them in different places.

Series [1] has as its target wild-type human cardiac sodium channel, hNav1.5 (peak INa) (Homo sapiens, UniProt Q14524). Briefly: Peak INa screening assay (tonic and use-dependent block). It counts as cell-based. The method, boiled down: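 Whole-cell automated patch clamp, HEK293 stably expressing hNav1.5 alpha without beta subunits, 23-25° C, holding −100 mV; bath Na⁺ reduced to 20 mM, CsF-based intracellular pH 7.4. Test compound 1 μM; tonic block at 0.1 Hz, use-dependent block at 3 Hz, % peak block after rundown correction.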

Another series relates to anesthetized rabbits. As to the kind of experiment: Ischemia-induced ST segment elevation in anesthetized rabbits. It is filed as in vivo. As to conditions: rabbit; for area under curve (AUC) for the ST segment height reduced (vs. control): 15 min LAD ischemia, iv bolus. The method, then:
This study was undertaken to determine the anti-ischemic effects of compounds of the present invention in an in vivo rabbit model.
Female New Zealand rabbits (3.0-4.0 kg) were purchased from Western Oregon Rabbitry. Animals were housed on a 12-h light and dark cycle and received standard laboratory chow and water. All experiments were performed in accordance with the Guide for the Care and Use of Laboratory Animals published by The National Research Council and with the experimental protocol approved by the Institutional Animal Care Committee of Gilead Sciences, Inc.
Rabbits were anesthetized with ketamine (35 mg/kg) and xylazine (5 mg/kg) intramuscular injection (im). A tracheotomy was performed and the trachea was intubated with an endotracheal tube. The animal was ventilated with room air supplemented with oxygen using a pressure control animal ventilator (Kent Scientific Corp., Torrington, Conn.) at a respiratory rate of 40 strokes/min and peak inspiration pressure of 10 mmH2O, which was adjusted to keep blood gases and pH within the physiological range (iSTAT clinic analyzer, Heska Corp.; Waukesha, Wis.). The left femoral artery was cannulated for the measurement of blood pressure (BP). Blood samples were also withdrawn from femoral artery. The right external jugular vein was cannulated for drug/vehicle administration. Needle electrodes were inserted subcutaneously into the limbs for recording of the surface electrocardiogram (ECG). The heart was exposed via an incision in the 4th intercostal space (4th and/or 5th ribs were cut for a clear surgical vision). The chest was opened and a pericardial cradle was formed using 4 retractors. A coronary artery occluder, comprised of a snare made of 5 cm PE-10 tubing with a 6-0 Prolene polypropylene suture in it, was placed loosely around the left anterior descending artery (LAD) at its origin. Two unipolar electrodes, made with teflon coated silver wire attached to a small patch of filter paper, were attached on the surface of the ischemic and normal regions of the left ventricle to record epicardial electrocardiogram. Reference electrodes were placed in the open incision of the neck. The body temperature of the animal was monitored via a rectal thermometer and maintained at 37-40° C. by adjusting the surface temperature of the surgical table. Regional ischemia (15 min) was induced by ligating the LAD followed by 15 min of reperfusion caused by releasing the ligation. The heart was excised at the end of the experiment and the LAD was re-ligated. The ischemic area was visualized by perfusing the heart with 1% Evans blue in saline and calculated as a percentage of total ventricular weight. Rabbits with ischemic area less than 10% or larger than 25% were excluded from the analysis. […]

[2] abbreviates: % inhibition at 1 μM, tonic block, read-out: NAv1.5*-PEAK-TB-.
The mark [3] stands for this setting: % inhibition at 1 μM, use-dependent block 3 Hz, read-out: NAv1.5*-PEAK-UDB-3 HZ-.
Setting [4] is: tonic block of peak INa, 0.1 Hz, 1 μM, read-out: Peak TB 1 μM.
Where [5] appears, read: use-dependent block of peak INa, 3 Hz, 1 μM, read-out: Peak UDB 1 μM.

Chain of wild-type human cardiac sodium channel, hNav1.5 (peak INa) (Q14524 whole entry): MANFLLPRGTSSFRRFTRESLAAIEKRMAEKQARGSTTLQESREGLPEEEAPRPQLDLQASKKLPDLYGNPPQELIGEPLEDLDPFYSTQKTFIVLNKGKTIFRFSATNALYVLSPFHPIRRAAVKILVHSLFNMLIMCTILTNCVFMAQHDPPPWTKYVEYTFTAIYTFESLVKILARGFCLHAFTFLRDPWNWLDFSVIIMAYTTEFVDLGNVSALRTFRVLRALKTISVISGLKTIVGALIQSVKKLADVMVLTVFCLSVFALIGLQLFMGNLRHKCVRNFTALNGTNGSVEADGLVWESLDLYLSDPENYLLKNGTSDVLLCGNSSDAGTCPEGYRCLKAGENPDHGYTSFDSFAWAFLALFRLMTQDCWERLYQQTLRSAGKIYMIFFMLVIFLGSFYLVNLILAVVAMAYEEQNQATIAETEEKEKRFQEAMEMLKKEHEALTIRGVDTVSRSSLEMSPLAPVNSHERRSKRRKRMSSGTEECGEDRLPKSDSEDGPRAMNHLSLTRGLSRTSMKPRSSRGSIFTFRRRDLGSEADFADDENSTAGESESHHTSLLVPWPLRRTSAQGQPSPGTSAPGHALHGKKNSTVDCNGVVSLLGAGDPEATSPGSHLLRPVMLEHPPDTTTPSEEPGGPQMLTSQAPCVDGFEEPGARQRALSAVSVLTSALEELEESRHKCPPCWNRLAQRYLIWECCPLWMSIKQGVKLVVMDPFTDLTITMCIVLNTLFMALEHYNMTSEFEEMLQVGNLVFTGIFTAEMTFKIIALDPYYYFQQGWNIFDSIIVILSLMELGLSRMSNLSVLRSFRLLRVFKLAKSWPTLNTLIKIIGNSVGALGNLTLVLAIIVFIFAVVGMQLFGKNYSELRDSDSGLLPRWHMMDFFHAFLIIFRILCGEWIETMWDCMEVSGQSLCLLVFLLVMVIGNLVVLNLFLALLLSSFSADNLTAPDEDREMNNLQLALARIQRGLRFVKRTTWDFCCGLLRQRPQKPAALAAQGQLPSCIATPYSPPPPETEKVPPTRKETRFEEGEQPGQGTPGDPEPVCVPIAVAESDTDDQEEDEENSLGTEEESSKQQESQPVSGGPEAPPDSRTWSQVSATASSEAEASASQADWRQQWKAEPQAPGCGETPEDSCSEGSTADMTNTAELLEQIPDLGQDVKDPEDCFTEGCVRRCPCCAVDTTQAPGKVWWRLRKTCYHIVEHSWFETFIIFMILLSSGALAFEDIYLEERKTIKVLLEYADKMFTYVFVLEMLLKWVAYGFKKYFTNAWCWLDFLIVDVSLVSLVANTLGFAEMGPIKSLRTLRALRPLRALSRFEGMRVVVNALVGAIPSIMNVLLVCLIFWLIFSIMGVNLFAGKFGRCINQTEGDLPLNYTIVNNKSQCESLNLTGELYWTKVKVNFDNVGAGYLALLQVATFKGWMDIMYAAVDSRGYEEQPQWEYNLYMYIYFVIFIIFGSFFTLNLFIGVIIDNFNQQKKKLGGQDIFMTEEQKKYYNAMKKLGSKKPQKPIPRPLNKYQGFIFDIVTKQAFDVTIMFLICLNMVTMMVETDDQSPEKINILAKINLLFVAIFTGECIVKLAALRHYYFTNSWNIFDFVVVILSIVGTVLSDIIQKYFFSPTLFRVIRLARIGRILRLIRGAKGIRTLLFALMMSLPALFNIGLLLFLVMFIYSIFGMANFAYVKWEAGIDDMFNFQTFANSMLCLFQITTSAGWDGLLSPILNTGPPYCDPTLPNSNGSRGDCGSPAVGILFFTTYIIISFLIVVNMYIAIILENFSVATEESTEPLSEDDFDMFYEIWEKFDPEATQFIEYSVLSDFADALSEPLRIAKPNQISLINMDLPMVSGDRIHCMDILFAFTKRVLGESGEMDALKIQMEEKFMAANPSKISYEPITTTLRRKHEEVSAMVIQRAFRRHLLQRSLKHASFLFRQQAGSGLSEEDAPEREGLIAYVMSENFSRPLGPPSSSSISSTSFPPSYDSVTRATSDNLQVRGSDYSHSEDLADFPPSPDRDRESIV

`Cc1noc(Cn2nnc3ccc(-c4ccc(OC(F)(F)F)cc4)cc3c2=O)n1` [II-3, 3-((3-methyl-1,2,4-oxadiazol-5-yl)methyl)-6-(4-(trifluoromethoxy)phenyl)benzo[d][1,2,3]triazin-4(3H)-one]: the inhibition at 1 µM in series [1] (setting [2]) came to 19%; in series [1] (setting [3]), 10%; in series [1] (setting [4]), 19%; in series [1] (setting [5]), 10%.

As for `O=c1c2cc(-c3ccc(OC(F)(F)F)cc3)ccc2nnn1Cc1noc(C2CC2)n1` [II-14, 3-((5-cyclopropyl-1,2,4-oxadiazol-3-yl)methyl)-6-(4-(trifluoromethoxy)phenyl)benzo[d][1,2,3]triazin-4(3H)-one], the “area under curve (AUC) for the ST segment height reduced (vs. control)” value in the series with anesthetized rabbits (0.3 μM plasma concentration) turned out to be 19%; with anesthetized rabbits (0.7 μM plasma concentration), 75%. Besides, in the series on anesthetized rabbits (at the plasma concentration levels studied), the “effect on blood pressure (BP), heart rate (HR) and ECG intervals prior to the ischemia” value is recorded as “no significant effect”. Moreover, the “ischemia-induced ST elevation” value with anesthetized rabbits (iv bolus 0.1, 0.2 and 0.4 mg/kg) was “dose-dependently prevented the ischemia-induced ST elevation”. Also, the inhibition at 1 µM in series [1] (setting [2]) was 7%; in series [1] (setting [3]), 1%; in series [1] (setting [4]) it was 7%; in series [1] (setting [5]), 1%.

In the case of `O=c1c2cc(-c3ccc(OC(F)(F)F)cc3)ccc2nnn1CCc1ccncn1` [II-17, 3-(2-(pyrimidin-4-yl)ethyl)-6-(4-(trifluoromethoxy)phenyl)benzo[d][1,2,3]triazin-4(3H)-one], the inhibition at 1 µM in series [1] (setting [2]) is 11%; in series [1] (setting [3]) it was 7%; in series [1] (setting [4]), 11%; in series [1] (setting [5]) it was 7%.

For `O=c1c2cc(-c3ccc(OC(F)(F)F)cc3)ccc2nnn1CCc1ncccn1` [II-18, 3-(2-(pyrimidin-2-yl)ethyl)-6-(4-(trifluoromethoxy)phenyl)benzo[d][1,2,3]triazin-4(3H)-one], the inhibition at 1 µM in series [1] (setting [2]) came to 15%; in series [1] (setting [3]), 13%; in series [1] (setting [4]), 15%; in series [1] (setting [5]), 13%.

As for `O=c1c2cc(-c3ccc(OC(F)(F)F)cc3)ccc2nnn1CCOc1ncccn1` [II-32, 3-(2-(pyrimidin-2-yloxy)ethyl)-6-(4-(trifluoromethoxy)phenyl)benzo[d][1,2,3]triazin-4(3H)-one], the inhibition at 1 µM in series [1] (setting [2]) stood at 16%; in series [1] (setting [3]), 21%; in series [1] (setting [4]), 16%; in series [1] (setting [5]), 21%.

For the molecule `N#Cc1ccnc(OCCn2nnc3ccc(-c4ccc(OC(F)(F)F)cc4)cc3c2=O)n1` [II-36, 2-(2-(4-oxo-6-(4-(trifluoromethoxy)phenyl)benzo[d][1,2,3]triazin-3(4H)-yl)ethoxy)pyrimidine-4-carbonitrile], the inhibition at 1 µM was determined as 7% in series [1] (setting [2]), 8% in series [1] (setting [3]), 7% in series [1] (setting [4]) and 8% in series [1] (setting [5]).

On to `O=c1c2cc(-c3ccc(OC(F)(F)F)cc3)ccc2nnn1CC1(CN2CCOCC2)CC1` [II-40, 3-((1-(morpholinomethyl)cyclopropyl)methyl)-6-(4-(trifluoromethoxy)phenyl)benzo[d][1,2,3]triazin-4(3H)-one], for which the inhibition at 1 µM worked out at 15% in series [1] (setting [2]), 29% in series [1] (setting [3]), 15% in series [1] (setting [4]) and 29% in series [1] (setting [5]).

Regarding `O=c1c2cc(-c3ccc(OC(F)(F)F)cc3)ccc2nnn1Cc1noc(-c2ccccn2)n1` [II-54, 3-((5-(pyridin-2-yl)-1,2,4-oxadiazol-3-yl)methyl)-6-(4-(trifluoromethoxy)phenyl)benzo[d][1,2,3]triazin-4(3H)-one], the inhibition at 1 µM in series [1] (setting [2]) was determined as 5%; in series [1] (setting [3]) it was 8%; in series [1] (setting [4]), 5%; in series [1] (setting [5]), 8%.

For the molecule `O=c1c2cc(-c3ccc(OC(F)(F)F)cc3)ccc2nnn1Cc1nnc(C2CC2)o1` [II-67, 3-((5-cyclopropyl-1,3,4-oxadiazol-2-yl)methyl)-6-(4-(trifluoromethoxy)phenyl)benzo[d][1,2,3]triazin-4(3H)-one], the inhibition at 1 µM in series [1] (setting [2]) turned out to be 12%; in series [1] (setting [3]), 7%; in series [1] (setting [4]), 12%; in series [1] (setting [5]), 7%.

On to `O=c1c2cc(-c3ccc(OC(F)(F)F)cc3)ccc2cnn1CCn1cccn1` [III-9, 2-(2-(1H-pyrazol-1-yl)ethyl)-7-(4-(trifluoromethoxy)phenyl)phthalazin-1(2H)-one], for which the inhibition at 1 µM in series [1] (setting [2]), in series [1] (setting [3]), in series [1] (setting [4]) and in series [1] (setting [5]) was 15% in each case.

With `COc1cc(OC)nc(Cn2ncc3ccc(-c4ccc(OC(F)(F)F)cc4)cc3c2=O)n1` [III-19, 2-((4,6-dimethoxypyrimidin-2-yl)methyl)-7-(4-(trifluoromethoxy)phenyl)phthalazin-1 (2H)-one], the inhibition at 1 µM in series [1] (setting [2]) came out at 14%; in series [1] (setting [3]) it was 19%; in series [1] (setting [4]) it was 14%; in series [1] (setting [5]) it was 19%.

For `Cc1noc(Cn2cnc3ccc(-c4ccc(OC(F)(F)F)cc4)cc3c2=O)n1` [IV-6, 3-((3-methyl-1,2,4-oxadiazol-5-yl)methyl)-6-(4-(trifluoromethoxy)phenyl)quinazolin-4(3H)-one], the inhibition at 1 µM was found to be 12% in series [1] (setting [2]), 7% in series [1] (setting [3]), 12% in series [1] (setting [4]) and 7% in series [1] (setting [5]).

Turning to `O=C(c1ncccn1)N1CCc2ccc(-c3ccc(C(F)(F)F)cc3)cc2C1` [IX-7, pyrimidin-2-yl(7-(4-(trifluoromethyl)phenyl)-3,4-dihydroisoquinolin-2(1H)-yl)methanone], the inhibition at 1 µM in series [1] (setting [2]) stood at 12%; in series [1] (setting [3]) it was 17%; in series [1] (setting [4]), 12%; in series [1] (setting [5]), 17%.

Consider `O=C1c2cc(-c3ccc(C(F)(F)F)cc3)ccc2OCN1Cc1ccccn1` [VIII-1, 3-(pyridin-2-ylmethyl)-6-(4-(trifluoromethyl)phenyl)-2H-benzo[e][1,3]oxazin-4(3H)-one], for which the inhibition at 1 µM in series [1] (setting [2]) is 35%; in series [1] (setting [3]), 26%; in series [1] (setting [4]), 35%; in series [1] (setting [5]), 26%.

Regarding `O=C1c2cc(-c3ccc(OC(F)(F)F)cc3)ccc2OCN1Cc1ccccn1` [VIII-3, 3-(pyridin-2-ylmethyl)-6-(4-(trifluoromethoxy)phenyl)-2H-benzo[e][1,3]oxazin-4(3H)-one], the inhibition at 1 µM in series [1] (setting [2]) amounted to 21%; in series [1] (setting [3]), 12%; in series [1] (setting [4]), 21%; in series [1] (setting [5]) it was 12%.

Consider `O=C1c2cc(-c3ccc(OC(F)(F)F)cc3)ccc2OCN1Cc1ncccn1` [VIII-20, 3-(pyrimidin-2-ylmethyl)-6-(4-(trifluoromethoxy)phenyl)-2H-benzo[e][1,3]oxazin-4(3H)-one], for which the figures for the inhibition at 1 µM in series [1] (setting [2]) and in series [1] (setting [3]) were 27% and 23%, respectively.

(Values after US20150329558A1, “FUSED HETEROCYCLIC COMPOUNDS AS ION CHANNEL MODULATORS” (Gilead Sciences, Inc., priority 2011, published 2015).)
